Results published in US7247748B2, “Amide compounds and methods of using the same” (SmithKline Corporation, priority 2002, dated 2007).

Assays:
[1] = target: T1, LXRα ligand binding domain (Homo sapiens, UniProt Q13133); test: Ligand Sensing Assay for LXRα agonist activity; format: biochemical; conditions: 1 μM; over a background reading of 10000 fluorescence units
T1 construct: His tag; made in house; host or cells: E. coli BL21(DE3) by analogy with Test Method 1 (inferred)
T1 sequence (Q13133 183-447): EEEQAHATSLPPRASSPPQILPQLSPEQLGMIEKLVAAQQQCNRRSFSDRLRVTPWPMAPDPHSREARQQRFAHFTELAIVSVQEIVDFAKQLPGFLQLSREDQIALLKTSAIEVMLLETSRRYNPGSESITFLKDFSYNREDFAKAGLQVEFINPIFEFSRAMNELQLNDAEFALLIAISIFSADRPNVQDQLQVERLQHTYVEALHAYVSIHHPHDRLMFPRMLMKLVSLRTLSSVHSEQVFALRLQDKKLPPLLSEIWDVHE
T1 sequence (Q15788 676-700 partner): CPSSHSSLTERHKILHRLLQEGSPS
Method: (§1) Test Method 1: Ligand Sensing Assay (LiSA) for LXRβ Agonist Activity
(§2) This assay measures the recruitment of a peptide derived from the coactivator protein, SRC1, to the agonist-bound LXR[…]. Peptides derived from other nuclear receptor cofactors may be similarly prepared and assayed.
The biotinylated protein was incubated for 20–25 minutes at a concentration of 5 nM in assay buffer (50 mM NaF, 50 mM MOPS-pH 7.5, 0.1 mg/ml FAF-BSA, 0.05 mM CHAPS, 10 mM DTT) with equimolar amounts of streptavidin-AlloPhycoCyanin (APC, Molecular Probes). […]
49 uL of the protein/peptide mixture was added to each well of an assay plate containing 1 ul of test compound serial diluted in 100% DMSO. […] The plates were incubated at room temp 2-hours and then counted on a Wallac Victor V fluorescent plate reader. […]
The assay for LXRα was run according to the procedures of Test Method 1, above using his-tagged LXRα ligand binding domain (amino acids 183–447 of Genbank accession number U22662, with the 14th amino acid corrected to A from R). In this assay 1 μM 24(S),25-epoxycholesterol gave a reading of 20000 fluorescence units over a background reading of 10000 fluorescence units.

[2] = target: T2, human LXRβ ligand binding domain (Homo sapiens, UniProt P55055); test: Ligand Sensing Assay (LiSA) for LXRβ agonist activity (SRC1 peptide recruitment); format: biochemical; conditions: 1 μM; over a background reading of 10000 fluorescence units
T2 construct: made in house; host or cells: E. coli BL21(DE3), vector pRSETa
T2 sequence (P55055 184-460 limits assumed): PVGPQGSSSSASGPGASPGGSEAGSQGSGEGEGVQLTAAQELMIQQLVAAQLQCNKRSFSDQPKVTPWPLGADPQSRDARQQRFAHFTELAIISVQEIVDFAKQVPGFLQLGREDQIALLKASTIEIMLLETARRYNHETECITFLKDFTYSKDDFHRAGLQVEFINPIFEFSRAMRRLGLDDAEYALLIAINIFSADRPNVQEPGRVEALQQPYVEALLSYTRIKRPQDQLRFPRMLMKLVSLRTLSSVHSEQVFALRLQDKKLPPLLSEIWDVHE
T2 sequence (Q15788 676-700 partner limits assumed): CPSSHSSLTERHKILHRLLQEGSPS
From the text: as §1, §2
To generate the human LXRβ ligand binding domain suitable for LiSA, a modified polyhistidine tag (MKKGHHHHHHG) (SEQ ID No. 1) was fused in frame to the human LXRβ ligand binding domain (amino acids 185–461 of Genbank accession number U07132) and subcloned into the expression vector pRSETa (Invitrogen) under the control of an IPTG inducible T7 promoter. The human LXRβ ligand binding domain was expressed in E. coli strain BL21(DE3). Ten-liter fermentation batches were grown in Rich PO4 media with 0.1 mg/mL Ampicillin at 25° C. for 12 hours, cooled to 9° C. and held at that temperature for 36 hours to a density of OD600=14. […]
Typically 25–50 g of cell paste is resuspended in 250–500 mL TBS, pH 8.0 (25 mM Tris, 150 mM NaCl). […] After washing to baseline absorbance with equilibration buffer, the column is washed with approximately one column volume of TBS pH […] containing 95 mM imidazole. […] After washing to baseline absorbance with the dilution buffer the protein is eluted with a gradient from 50–500 mM NaCl. […]

C[C@H](CC[C@@H]1OC1(C)C)[C@H]1CC[C@H]2[C@@H]3CC=C4C[C@@H](O)CC[C@]4(C)[C@H]3CC[C@]12C [24(S),25-epoxycholesterol]
reading [1]: 20000 fluorescence units
reading [2]: 20000 fluorescence units
